What was measured:
Assay type in all cases: in vivo, C57/BL6 mice
[1] = Study 1: body weight gain in mice on standard laboratory diet, 12 weeks intragastric supplementation
Excerpt: Materials Used: Shilajit (PrimaVie®, Natreon, Inc., New Brunswick, N.J.), a standardized dietary supplement ingredient extracted and processed from Shilajit bearing rocks, containing not less than about 50% by weight fulvic acids (FAs), at least about 10% by weight dibenzo-α-pyrone chromoproteins, and at least 0.3%, or more, by weight total dibenzo-α-pyrones (DBPs), 3-OH-DBP (99.0% purity, Natreon, Inc.), and 3,8-(OH)2-DBP (99.0% purity, Natreon, Inc) were used.
Three groups of adult C57/BL6 mice (n=8) were intragastrically supplemented with purified Shilajit (PS), 3,8-dihydroxy-dibenzo-α-pyrone (3,8-(OH)2-DBP) or placebo for 12 weeks. Body weight was measured every week. At the end of week 12, skeletal muscle tissue was harvested for gene profiling. Some tissue was stored for histology and HPLC analysis.
The control group of mice received DMSO in corn oil while the PS group received 100 mg of purified Shilajit/kg body weight of mice, dissolved in water and the DBP group received 10 mg of 3,8-(OH)2-DBP/kg body weight of mice, dissolved in DMSO/corn oil.
At week 12, the following tissues were collected: heart, lung, liver, brain, muscles, adipose tissue, skeletal muscle (vastus lateralis) and whole blood.

[2] = Study 2: body weight gain in mice on standard laboratory diet, 10 then 50 mg/kg DBPs; conditions: for less body weight gain / less gain in body weight: 10 mg/kg b.w.; for less body weight gain: at 8 weeks; for less gain in body weight: at four weeks; for less weight gain: 3 weeks after increasing the dose to 50 mg/kg b.w. (from 13th week)
Description: Since the results from Study 1 were totally unexpected, Study 2 was carried out in order to validate the results from Study 1 and also to determine if another bioactive of Shilajit, 3-hydroxy-dibenzo-α-pyrone, may have a similar beneficial effect on controlling body weight gain. Study 2 was carried out under similar experimental conditions as Study 1, using standard laboratory diet, except that a 10 mg/kg body weight dose was administered for the first 12 weeks and then the dose was increased to 50 mg/kg body weight from the 13th week through the 19th week. The primary purpose of increasing the dose is to find out if the response is dose proportional. […] It is interesting to note that 3 weeks after increasing the dose of DBPs to 50 mg/kg b.w., 3-OH-DBP group still maintained about 45% less weight gain while the 3,8-(OH)2-DBP group retained only about 10% less weight gain. […] The secondary purpose of increasing the dose is to find out if increased dose is toxic. Different tissues were collected from the mice and toxicological examination will be conducted.

[3] = Study 3: body weight gain in mice on high fat diet, later switched to standard diet; conditions: starting at 14 weeks, after switching to standard laboratory diet
Description: Since the Studies 1 and 2 were carried out with standard laboratory diet, it was imperative to do a study with high fat diet fed mice. Study 3 was conducted using such a diet (Bio-Serve Cat# 534282, 36% fat). After 11 weeks, the high fat diet was replaced with the standard laboratory diet. […] However, starting at 14 weeks after switching to the standard laboratory diet, there is a trend in both the DBP groups for less weight gain compared to the placebo group. […] Thus, it is possible that the DBPs, especially the 3-OH-DBP, may have the potential to control body weight gain in individuals on fatty diet as well, though at a slower pace than in individuals on normal diet.

SMILES | weight gained in 90 days ([1]; 10 mg/kg body weight in DMSO/corn oil, intragastric, standard laboratory diet, 90 days) | overt signs of health compromise ([1]; 10 mg/kg body weight, 12 weeks) | age-dependent gain in body weight ([1]; standard laboratory diet/conditions) | less body weight gain [2] | less gain in body weight [2] | less weight gain [2] | trend for less weight gain compared to placebo [3]
O=c1oc2cc(O)ccc2c2ccc(O)cc12 [3,8-(OH)2-DBP, 3,8-dihydroxy-dibenzo-α-pyrone] | about 7.5% | no overt signs of health compromise | significant decrease | about 50% | ~40% | about 10% | 
O=c1oc2cc(O)ccc2c2ccccc12 [3-OH-DBP, 3-hydroxy-dibenzo-α-pyrone] |  |  |  | about 50% | about 45% | about 45% | especially prominent

— patent publication US9901596B2, “Regulation of body weight gain by using dibenzo-alpha-pyrones” (Natreon, Inc., priority 2013, dated 2018)
